Measurements published in US20240269139A1, “COMPOUNDS FOR TARGETED PROTEIN DEGRADATION OF KINASES” (DANA-FARBER CANCER INSTITUTE, INC., priority 2020, published 2024).
Values joined by “and” are separate entries in the source; they are usually repeats but may differ in a detail not shown here. Equal values may be shown once. Read-outs that look alike come from different tables or passages of the source.

What was measured:
[1] = target: protein kinases (human kinome) (Homo sapiens, UniProt Q16539); format: cell-based; conditions: for logFC MAPK14: MAPK14, accession Q16539, direction of change down
protein kinases (human kinome) (Homo sapiens, UniProt Q16539), sequence (Q16539 whole entry): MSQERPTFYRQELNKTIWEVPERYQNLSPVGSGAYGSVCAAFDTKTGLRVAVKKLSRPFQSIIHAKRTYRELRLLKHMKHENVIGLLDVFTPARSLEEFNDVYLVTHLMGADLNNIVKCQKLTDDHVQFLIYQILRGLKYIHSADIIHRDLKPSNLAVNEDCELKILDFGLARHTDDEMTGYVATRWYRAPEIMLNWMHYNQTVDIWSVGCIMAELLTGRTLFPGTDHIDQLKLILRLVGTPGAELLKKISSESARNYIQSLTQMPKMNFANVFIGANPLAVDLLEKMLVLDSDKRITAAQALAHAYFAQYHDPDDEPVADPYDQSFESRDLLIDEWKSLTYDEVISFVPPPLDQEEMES

[2] = target: T1, protein kinases (human kinome) (Homo sapiens, UniProt Q9NYY8); format: cell-based; conditions: Experiment wp081; direction down
T1 sequence (Q9NYY8 1-710): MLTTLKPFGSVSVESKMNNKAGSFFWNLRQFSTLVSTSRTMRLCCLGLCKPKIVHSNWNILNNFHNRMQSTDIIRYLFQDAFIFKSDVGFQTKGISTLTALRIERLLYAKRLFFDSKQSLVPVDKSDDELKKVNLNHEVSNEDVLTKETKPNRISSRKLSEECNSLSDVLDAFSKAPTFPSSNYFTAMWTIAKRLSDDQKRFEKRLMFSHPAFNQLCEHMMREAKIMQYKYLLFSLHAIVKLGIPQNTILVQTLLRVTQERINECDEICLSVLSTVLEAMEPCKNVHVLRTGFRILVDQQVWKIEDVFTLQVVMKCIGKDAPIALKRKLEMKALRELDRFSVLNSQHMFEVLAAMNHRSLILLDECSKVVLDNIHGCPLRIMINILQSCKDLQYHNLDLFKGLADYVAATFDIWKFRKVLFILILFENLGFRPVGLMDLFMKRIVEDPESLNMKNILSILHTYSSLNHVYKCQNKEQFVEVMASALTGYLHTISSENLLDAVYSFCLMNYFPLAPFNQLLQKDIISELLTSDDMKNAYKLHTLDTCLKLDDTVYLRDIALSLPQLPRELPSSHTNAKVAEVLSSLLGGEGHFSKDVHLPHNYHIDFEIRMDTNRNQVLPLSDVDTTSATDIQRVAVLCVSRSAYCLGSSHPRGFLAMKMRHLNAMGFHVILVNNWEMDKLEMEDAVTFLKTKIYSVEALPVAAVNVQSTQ

[3] = target: protein kinases (human kinome) (Homo sapiens, UniProt Q9H0K1); format: cell-based; conditions: for logFC of SIK2: Accession Q9H0K1; for logFC SIK2 (Q9H0K1): direction of change down
protein kinases (human kinome) (Homo sapiens, UniProt Q9H0K1), sequence (Q9H0K1 whole entry): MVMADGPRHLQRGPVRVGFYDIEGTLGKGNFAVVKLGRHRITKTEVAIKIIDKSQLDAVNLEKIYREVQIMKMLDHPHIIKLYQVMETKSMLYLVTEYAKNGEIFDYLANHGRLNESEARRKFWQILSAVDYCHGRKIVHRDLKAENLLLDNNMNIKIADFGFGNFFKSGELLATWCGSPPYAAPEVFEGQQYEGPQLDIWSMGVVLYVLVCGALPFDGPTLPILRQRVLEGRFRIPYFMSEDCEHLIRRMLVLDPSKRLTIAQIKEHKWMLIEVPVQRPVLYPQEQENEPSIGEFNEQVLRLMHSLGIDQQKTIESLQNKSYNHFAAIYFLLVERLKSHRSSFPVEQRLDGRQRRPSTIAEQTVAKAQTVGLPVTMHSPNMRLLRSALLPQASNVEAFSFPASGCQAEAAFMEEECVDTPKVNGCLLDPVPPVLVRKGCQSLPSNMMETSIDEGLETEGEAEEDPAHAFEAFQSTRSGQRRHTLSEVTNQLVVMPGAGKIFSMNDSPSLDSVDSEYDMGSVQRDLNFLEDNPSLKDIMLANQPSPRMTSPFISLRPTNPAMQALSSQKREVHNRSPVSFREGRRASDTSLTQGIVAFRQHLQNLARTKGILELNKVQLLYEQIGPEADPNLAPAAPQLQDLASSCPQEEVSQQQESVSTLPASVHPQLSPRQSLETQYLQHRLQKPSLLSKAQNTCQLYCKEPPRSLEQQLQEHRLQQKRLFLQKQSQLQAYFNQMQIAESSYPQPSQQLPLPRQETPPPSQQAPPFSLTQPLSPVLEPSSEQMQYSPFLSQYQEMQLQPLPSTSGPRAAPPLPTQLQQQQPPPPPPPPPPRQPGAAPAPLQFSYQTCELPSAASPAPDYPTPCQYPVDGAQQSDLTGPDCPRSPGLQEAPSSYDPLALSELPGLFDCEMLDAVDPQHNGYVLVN

[4] = target: T2, extended human kinome (kinase-like proteins) (Homo sapiens, UniProt P54886); experiment: Whole cell quantitative proteomics: extended kinome hits; conditions: Accession P54886; experiment wp081
T2 sequence (P54886 1-795): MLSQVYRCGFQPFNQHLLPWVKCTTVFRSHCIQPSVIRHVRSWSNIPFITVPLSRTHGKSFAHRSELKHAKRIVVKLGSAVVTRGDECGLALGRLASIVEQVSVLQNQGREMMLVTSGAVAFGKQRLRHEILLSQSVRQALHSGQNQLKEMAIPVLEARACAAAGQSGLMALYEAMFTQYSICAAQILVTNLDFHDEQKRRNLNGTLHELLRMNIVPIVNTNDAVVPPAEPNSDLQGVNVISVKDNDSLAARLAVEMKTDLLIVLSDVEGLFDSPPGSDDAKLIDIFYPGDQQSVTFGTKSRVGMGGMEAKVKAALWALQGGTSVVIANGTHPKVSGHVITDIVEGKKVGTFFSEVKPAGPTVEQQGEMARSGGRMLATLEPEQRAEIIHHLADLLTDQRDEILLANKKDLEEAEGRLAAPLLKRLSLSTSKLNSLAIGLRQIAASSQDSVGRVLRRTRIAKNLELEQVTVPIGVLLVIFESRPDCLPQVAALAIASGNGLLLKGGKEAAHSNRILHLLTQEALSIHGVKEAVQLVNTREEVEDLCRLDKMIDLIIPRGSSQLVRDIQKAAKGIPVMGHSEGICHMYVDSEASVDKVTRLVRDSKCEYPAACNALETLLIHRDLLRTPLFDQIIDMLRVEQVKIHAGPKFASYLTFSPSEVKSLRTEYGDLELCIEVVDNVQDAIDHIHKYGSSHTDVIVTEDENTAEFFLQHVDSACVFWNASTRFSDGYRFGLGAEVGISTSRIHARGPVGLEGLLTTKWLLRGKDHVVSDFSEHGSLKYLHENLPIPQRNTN

Cn1c(=O)c(-c2c(Cl)cccc2Cl)cc2cnc(Nc3ccc(OCCNC(=O)CCCCCCNC(=O)COc4cccc5c4C(=O)N(C4CCC(=O)NC4=O)C5=O)cc3)nc21 (stereo not shown) [SB1.G.192.1]
logFC ([1]; MAPK14 (Q16539) protein abundance, degrader vs DMSO, down): −0.8915 and −0.7293
logFC ([1]; MAPK14 (Q16539), experiment wp131): −0.7463
logFC MAPK14 ([1]; experiment wp071): −0.8915
logFC MAPK14 ([1]; experiment wp081): −0.7293
logFC MAPK14 ([1]; experiment wp131): −0.7463
logFC FASTKD2 (Q9NYY8) [2]: −0.3577
logFC of SIK2 ([3]; experiment wp071): −1.036
logFC of SIK2 ([3]; experiment wp081): −1.196
logFC of SIK2 ([3]; experiment wp131): −0.9342
logFC SIK2 ([3]; SIK2 (Q9H0K1), experiment wp071, down): −1.036
logFC SIK2 (Q9H0K1) ([3]; experiment wp081): −1.196
logFC SIK2 (Q9H0K1) ([3]; experiment wp131): −0.9342
logFC ALDH18A1 [4]: −0.39
